According to US20110124574A1, “RESTORATION OF ESTROGEN RECEPTOR-(ALPHA) ACTIVITY” (priority 2008, published 2011):
Where no end group is shown, it is not given here. The star is where a group is joined. For = O=C*

Tested on: murine ERα
Experiment: In vivo ERα RT-PCR in 4T1 primary breast tumors of Balb/C mice
Set-up: species or system mouse
Details: Balb/C mice with 4T1 cells in mammary fat pads, 20 μg every fourth day for 25 days
Experimental: 2.5×10^4 4T1 breast cancer cells were inoculated into the mammary fat pads of 8-week old Balb/C mice. The animals were subsequently treated with either PBS alone, the Rdm control peptide (20 μg) or Foxy-5 (20 μg), every 4th day, for 25 days. RNA was extracted from primary breast tumors from 4 animals in each group, and subjected to RT-PCR for murine ERα. Shown are primary tumor samples from two animals of each treatment group.
2.5×10^4 4T1 breast cancer cells were inoculated into the mammary fat pads of 8 week old Balb/C mice, that were subsequently treated with either PBS alone, the Rdm control peptide (20 μg), or Foxy-5 (20 μg) every 4th day, for 25 days as described in a previous publication from the inventors (9). RNA was extracted from flash frozen primary breast tumors from 4 animals in each group, and subjected to RT-PCR for murine ERα.

Substance: formyl-MDGCEL (For-MDGCEL; listed as Homo sapiens) [Foxy-5]
- ERα expression in primary tumors: strong ERα expression
